For this assay, the target named is T1, IRAK4 (Homo sapiens, UniProt Q9NWZ3).
T1 sequence (Q9NWZ3 1-460): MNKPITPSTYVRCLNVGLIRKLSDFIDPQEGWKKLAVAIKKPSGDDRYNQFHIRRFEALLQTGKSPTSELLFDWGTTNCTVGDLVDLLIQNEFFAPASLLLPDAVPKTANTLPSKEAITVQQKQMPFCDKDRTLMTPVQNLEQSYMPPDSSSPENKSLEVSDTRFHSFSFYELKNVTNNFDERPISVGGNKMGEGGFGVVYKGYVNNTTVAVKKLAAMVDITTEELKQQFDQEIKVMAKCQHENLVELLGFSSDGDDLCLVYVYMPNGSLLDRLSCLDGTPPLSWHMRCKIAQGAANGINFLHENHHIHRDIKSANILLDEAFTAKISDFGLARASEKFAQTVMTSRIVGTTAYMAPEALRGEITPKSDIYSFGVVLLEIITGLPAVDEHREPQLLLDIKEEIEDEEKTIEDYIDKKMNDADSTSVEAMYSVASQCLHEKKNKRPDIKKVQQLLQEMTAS
Description: OCI-LY-10 degradation assay (western blot, % IRAK4 degraded after 4 hours). The assay is classed as cell-based. Set-up: endogenous in cells; host or cells: OCI-LY10. Conditions: OCI-LY10 cells, IRAK4 degraded after 4 hours, western blot. How it is done: Compounds were reconstituted in DMSO to make stock solutions at concentration of 60 mM. THP-1 and OCI-LY10 cells were maintained in RPMI-1640 medium containing 10% FBS, 0.5 μM 2-ME or 20% FBS, 55 μM 2-ME, and 1% L-Glutamine respectively.
Cells were seeded into 6-well plates with 5e6 cells per well. 200 μL of diluted compounds were added to cells to the final concentration of 0.003-10 μM. After 4 or 24 hour-incubation at 37° C., cells were collected into 2 mL Eppendorf tubes and centrifuged at 1,000 rpm for 5 min. The cell pellets were washed with 1×DPBS once and resuspended in 60 μL lysis buffer. The cells were lysed on ice for 10 min, then centrifuged at 14,000 rpm for 10 min at 4° C. and the supernatants were collected for western blots. For THP-1 cells, the lysis buffer contained 40 mM pH 7.4 HEPES, 140 mM NaCl, 2.5 mM EDTA, 1% NP-40, 0.1% SDS, and protease inhibitor cocktail (Roche, Cat. No. 05892791001). For OCI-LY10 cells, RIPAbuffer (Thermo Fisher, 89900) with Halt Protease and Phosphatase Inhibitor Cocktail (Thermo Fisher, 78446) was applied.
The protein concentration of cell lysates was quantified with Pierce™ BCA Protein Assay Kit (Pierce, 23227). Albumin standards at different concentrations were prepared, involving 2,000 ug/mL, 1,500 ug/mL, 1,000 ug/mL, 750 ug/mL, 500 ug/mL, 250 ug/mL, 125 ug/mL, and 25 ug/mL. BCA working reagents were prepared by mixing BCA reagent A with reagent B in 50:1 ratio. 200 μL of the BCA working reagents were added to 25 μL of BCA standard or cell lysates in microplate, and mixed thoroughly on a plate shaker for 30 seconds. After incubation at 37° C. for 30 min, the absorbance of samples at 562 nm were measured with EnVision Plate Reader.
Protein lysates were prepared in NuPAGE™ LDS sample buffer and NuPAGE™ sample reducing agent, and incubated at 95° C. for 5 min. For western blots, 20-25 μg of total proteins were resolved in 4-12% Bis-Tris gels (Introgen, WG1403A) or 10% Bis-Tris Midi gels (Invitrogen, WG1202BOX) running with 1×MOPS SDS running buffer (Invitrogen, NP0001) or 1×MES SDS running buffer (Invitrogen, NP0002). The proteins were transferred to low fluorescence PVDF membranes using the Trans-Blot Turbo Transfer System. Membranes were then blocked in Odyssey blocking buffer at RT for 1 h followed by primary incubation at 4° C. overnight. The primary antibodies were IRAK1 rabbit monoclonal antibody (CST, #4504S, 1:500), IRAK3 rabbit polyclonal antibody (CST, #4369, 1:500), IRAK4 rabbit polyclonal antibody (CST, #4363S, 1:1,000), MyD88 rabbit monoclonal antibody (Abcam, Ab133739, 1:2,000), j3-actin mouse monoclonal antibody (Sigma, A5441, 10,000), and Gapdh mouse monoclonal antibody (Millipore, MAB374, 1:5,000). Membranes were washed three times with 1×TBST, and then incubated with IR Dye 800 CW Goat anti-rabbit (Licor, #926-32211) and IR Dye 700 CW Goat anti-mouse (Licor, #926-68070) secondary antibodies in 1:10,000 dilution at RT for 1 h. The western blot images were obtained using Odyssey Imaging System.
OCI-LY-10 results at 4 hours. The letter codes indicate the percentage of IRAK4 degraded after 4 hours: A (>50% degradation), B (>20-50% degradation) and C (<20% degradation)
OCI-LY-10 results at 4 hours. The letter codes for % IRAK4 degradation indicate the percentage of IRAK4 degraded after 4 hours across three different concentrations: A (>50% degradation), B (>20-50% degradation) and C (<20% degradation).
In general terms: Immunoblotting shows a protein as a band on a membrane.
Turning to `O=C(COc1cccc2c1C(=O)N(C1CCC(=O)NC1=O)C2=O)NCCCCNC(=O)[C@H]1CC[C@H](NC(=O)c2cnc(Nc3ccc4cnccc4n3)cc2NC2CC2)CC1` (stereo partly drawn) [I-9], the “OCI-LY10 % IRAK4 Degradation” value is “C (<20% degradation)”.
The same measure for `N#Cc1cnc2c(cnn2-c2cc(NC3CC3)c(C(=O)N[C@H]3CC[C@H](C(=O)NCCOCCOCCOCCNC(=O)COc4cccc5c4C(=O)N(C4CCC(=O)NC4=O)C5=O)CC3)cn2)c1` (stereo partly drawn) [I-17]: “C (<20% degradation)”; for `N#Cc1cnc2c(cnn2-c2cc(NC3CC3)c(C(=O)N[C@H]3CC[C@H](COCCOCCOCCOCCNC(=O)COc4cccc5c4C(=O)N(C4CCC(=O)NC4=O)C5=O)CC3)cn2)c1` (stereo partly drawn) [I-18]: “B (>20-50% degradation)”.
Turning to `N#Cc1cnc2c(cnn2-c2cc(NC3CC3)c(C(=O)N[C@H]3C[C@H](C(=O)NCCOCCOCCOCCOCCNc4cccc5c4C(=O)N(C4CCC(=O)NC4=O)C5=O)C3)cn2)c1` (stereo partly drawn) [I-21, 6-(5-cyano-1H-pyrazolo[3,4-b]pyridin-1-yl)-4-(cyclopropylamino)-N-((1r,3r)-3-((14-((2-(2,6-dioxopiperidin-3-yl)-1,3-dioxoisoindolin-4-yl)amino)-3,6,9,12-tetraoxatetradecyl)carbamoyl)cyclobutyl)nicotinamide], the “OCI-LY10 % IRAK4 Degradation” value was “C (<20% degradation)”.
The same measure for `N#Cc1cnc2c(cnn2-c2cc(NC3CC3)c(C(=O)N[C@H]3CC[C@H](C(=O)NCCOCCOCCOCCOCCNc4cccc5c4C(=O)N(C4CCC(=O)NC4=O)C5=O)CC3)cn2)c1` (stereo partly drawn) [I-22, 6-(5-cyano-1H-pyrazolo[3,4-b]pyridin-1-yl)-4-(cyclopropylamino)-N-((1r,4r)-4-((14-((2-(2,6-dioxopiperidin-3-yl)-1,3-dioxoisoindolin-4-yl)amino)-3,6,9,12-tetraoxatetradecyl)carbamoyl)cyclohexyl)nicotinamide]: “C (<20% degradation)”; for `O=C1CCC(N2C(=O)c3cccc(NCCOCCOCCNC(=O)[C@H]4C[C@H](NC(=O)c5cnc(Nc6ccc7cnccc7n6)cc5NC5CC5)C4)c3C2=O)C(=O)N1` (stereo partly drawn) [I-26, 6-((1,6-naphthyridin-2-yl)amino)-4-(cyclopropylamino)-N-((1r,3r)-3-((2-(2-(2-((2-(2,6-dioxopiperidin-3-yl)-1,3-dioxoisoindolin-4-yl)amino)ethoxy)ethoxy)ethyl)carbamoyl)cyclobutyl)nicotinamide]: “C (<20% degradation)”; for `N#Cc1cnc2c(cnn2-c2cc(NC3CC3)c(C(=O)N[C@H]3C[C@H](C(=O)NCCOCCOCCNc4cccc5c4C(=O)N(C4CCC(=O)NC4=O)C5=O)C3)cn2)c1` (stereo partly drawn) [I-27, 6-(5-cyano-1H-pyrazolo[3,4-b]pyridin-1-yl)-4-(cyclopropylamino)-N-((1R,3R)-3-((2-(2-(2-((2-(2,6-dioxopiperidin-3-yl)-1,3-dioxoisoindolin-4-yl)amino)ethoxy)ethoxy)ethyl)carbamoyl)cyclobutyl)nicotinamide]: “C (<20% degradation)”.
The same measure for `O=C1CCC(N2C(=O)c3cccc(NCCOCCOCCOC[C@H]4C[C@H](NC(=O)c5cnc(Nc6ccc7cnccc7n6)cc5NC5CC5)C4)c3C2=O)C(=O)N1` (stereo partly drawn) [I-31]: “C (<20% degradation)”; for `N#Cc1cnc2c(cnn2-c2cc(NC3CC3)c(C(=O)N[C@H]3CC[C@H](COCCOCCOCCNc4cccc5c4C(=O)N(C4CCC(=O)NC4=O)C5=O)CC3)cn2)c1` (stereo partly drawn) [I-32]: “C (<20% degradation)”.
The same measure for `N#Cc1cnc2c(cnn2-c2cc(NC3CC3)c(C(=O)N[C@H]3CC[C@H](COCCOCCOCCOCCOCCNc4cccc5c4C(=O)N(C4CCC(=O)NC4=O)C5=O)CC3)cn2)c1` (stereo partly drawn) [I-33]: “C (<20% degradation)”.
With `N#Cc1cnc2c(cnn2-c2cc(NC3CC3)c(C(=O)N[C@H]3C[C@H](COCCOCCOCCNc4cccc5c4C(=O)N(C4CCC(=O)NC4=O)C5=O)C3)cn2)c1` (stereo partly drawn) [I-34], the “OCI-LY10 % IRAK4 Degradation” value is on record as “C (<20% degradation)”.
The same measure for `N#Cc1cnc2c(cnn2-c2cc(NC3CC3)c(C(=O)N[C@H]3CC[C@H](COCCOCCOCCNc4cccc5c4C(=O)N(C4CCC(=O)NC4=O)C5=O)C3)cn2)c1` (stereo partly drawn) [I-35]: “C (<20% degradation)”.

The record behind these values is US10874743B2, “IRAK degraders and uses thereof” (Kymera Therapeutics, Inc., priority 2017, dated 2020).
